# These antisense oligonucleotides have a phosphorothioate backbone; sugars and methylation of C are not fully specified.
# Target: AKT3
# Conditions: ASO
# Further: test concentration or dose not given here.
sequence,measurement,value
ATATATTCTCCCCTCTTC,remaining target (mRNA or protein) (fraction of control),≥ 1
ATCAAGAGCCCTGAAAGC,remaining target (mRNA or protein) (fraction of control),0.29
ATTATCAATTTGTGAAGT,remaining target (mRNA or protein) (fraction of control),≥ 1
ATTCTCTCCTCTTCTTGC,remaining target (mRNA or protein) (fraction of control),≥ 1
ATTCTTCATCAAAATATC,remaining target (mRNA or protein) (fraction of control),≥ 1
ATTTGGATCCTTTATCAA,remaining target (mRNA or protein) (fraction of control),≥ 1
CAACCCCTAGGCCCCACC,remaining target (mRNA or protein) (fraction of control),0.16
CATCTTGAGGTTTCTCTT,remaining target (mRNA or protein) (fraction of control),≥ 1
CCATCTGTCTTCAAAAGG,remaining target (mRNA or protein) (fraction of control),≥ 1
CCCACACATCATTTCATA,remaining target (mRNA or protein) (fraction of control),0.25
CTACATGAAATGTTCTCT,remaining target (mRNA or protein) (fraction of control),≥ 1
CTAGGCCCCACCAGTCTA,remaining target (mRNA or protein) (fraction of control),0.17
CTATGAATGAGCCATCTG,remaining target (mRNA or protein) (fraction of control),0.99
CTCCACCAAGGCGTTTAT,remaining target (mRNA or protein) (fraction of control),0.12
CTCTTCTAAACCCAACCT,remaining target (mRNA or protein) (fraction of control),0.79
CTCTTTATATCCTATGAA,remaining target (mRNA or protein) (fraction of control),≥ 1
CTGAAGAGAGTGTTCGAG,remaining target (mRNA or protein) (fraction of control),≥ 1
CTGCTCGGCCATAGTCAT,remaining target (mRNA or protein) (fraction of control),0.19
CTGTTTTCATTAACTGGC,remaining target (mRNA or protein) (fraction of control),≥ 1
CTTTTGCGTCATCTGGTC,remaining target (mRNA or protein) (fraction of control),≥ 1
GAGACATCTGATTATAAA,remaining target (mRNA or protein) (fraction of control),≥ 1
GAGGAAATTTAATGTCTT,remaining target (mRNA or protein) (fraction of control),≥ 1
GATCCTTTATCAAGAGCC,remaining target (mRNA or protein) (fraction of control),0.4
GATTATAAATGTGTTTGG,remaining target (mRNA or protein) (fraction of control),≥ 1
GCCAGTTTACTCCAGAGA,remaining target (mRNA or protein) (fraction of control),0.44
GCCCTGAAAGCAATGATT,remaining target (mRNA or protein) (fraction of control),0.34
GCCTCTGCAGTCTGTCTG,remaining target (mRNA or protein) (fraction of control),≥ 1
GCGTCATCTGGTCCTCCA,remaining target (mRNA or protein) (fraction of control),0.26
GCGTTTATTTGGATCCTT,remaining target (mRNA or protein) (fraction of control),≥ 1
GGAAGTATCTTGGCCTCC,remaining target (mRNA or protein) (fraction of control),≥ 1
GGAGTATCTACATGAAAT,remaining target (mRNA or protein) (fraction of control),≥ 1
GGTTTAAGAGGAGGTACA,remaining target (mRNA or protein) (fraction of control),≥ 1
GTAATAGTCTGAGCTGTA,remaining target (mRNA or protein) (fraction of control),0.88
GTAGTCCACTGGAGACAT,remaining target (mRNA or protein) (fraction of control),≥ 1
GTCCTGGTTGTAGAAAGG,remaining target (mRNA or protein) (fraction of control),0.58
GTCTCAGATGTTACTTGA,remaining target (mRNA or protein) (fraction of control),0.71
GTCTGCTACAGCCTGGAT,remaining target (mRNA or protein) (fraction of control),0.92
GTTGTAGAGGCATCCATC,remaining target (mRNA or protein) (fraction of control),≥ 1
TAATTTCTTTTGCGTCAT,remaining target (mRNA or protein) (fraction of control),≥ 1
TACTCCAGAGAAGAAACT,remaining target (mRNA or protein) (fraction of control),0.85
TAGTATCTGTCTCAGATG,remaining target (mRNA or protein) (fraction of control),0.7
TCATACATGACAACCCCT,remaining target (mRNA or protein) (fraction of control),0.13
TCATTAACTGGCATTTTG,remaining target (mRNA or protein) (fraction of control),≥ 1
TCATTTCATACATGACAA,remaining target (mRNA or protein) (fraction of control),≥ 1
TCCCCTCTTCTGAACCCA,remaining target (mRNA or protein) (fraction of control),0.55
TCTATAACAGTAGTCCAC,remaining target (mRNA or protein) (fraction of control),≥ 1
TCTCATGGTCCTGGTTGT,remaining target (mRNA or protein) (fraction of control),0.57
TCTGGTCCTCCACCAAGG,remaining target (mRNA or protein) (fraction of control),0.26
TCTTCCTCTCCTATATTA,remaining target (mRNA or protein) (fraction of control),≥ 1
TCTTCTTGCCTCTGCAGT,remaining target (mRNA or protein) (fraction of control),≥ 1
TGTAGAAAGGTAACCTCC,remaining target (mRNA or protein) (fraction of control),0.82
TGTCCATTCTTCCCTTTC,remaining target (mRNA or protein) (fraction of control),≥ 1
TGTCTCATAATTTCTTTT,remaining target (mRNA or protein) (fraction of control),≥ 1
TGTTCGAGGAAATTTAAT,remaining target (mRNA or protein) (fraction of control),≥ 1
TGTTCTCTCTATAACAGT,remaining target (mRNA or protein) (fraction of control),0.94
TTCCATTAATATTAATTC,remaining target (mRNA or protein) (fraction of control),≥ 1

# From the OligoGym collection
